For experiment [1], the target named is T1, PRMT5 (Homo sapiens, UniProt O14744).
T1 construct: purchased Viva (custom protein)
Briefly: PRMT5 biochemical IC50 assay with SAM as cofactor.

Experiment [2] deals with HAP1 MTAP-deleted cell line. Briefly: Viability assay, MTAP-deleted cell line. The experiment is classed as cell-based. The following applies: Homo sapiens. The source says:
Table 1 additionally indicates IC50 values in a viability assay for the MTAP-deleted cell line (column 10), indicating the effect of treatment with compound on cell survival.

The target in experiment [3] is T1, PRMT5. Put plainly: PRMT5 biochemical IC50 assay with no cofactor. As to conditions: PRMT5, no cofactor. The source says: Table 1 indicates IC50 values (μM) against PRMT5 for exemplary compounds in the presence of SAM as cofactor, with no cofactor, and with MTA as cofactor, respectively (columns 4-6). […] Ki values can be calculated from the IC50 values as described in the Examples section. As detailed in the Examples section, for the assay performed in the presence of SAM, IC50=Ki×1.5 (Ki=IC50/1.5).

Experiment [4] deals with HAP1 MTAP-deleted cell line. Put plainly: SDMA in-cell western assay, HAP1 MTAP-deleted. It counts as cell-based. As to conditions: for IC50: Homo sapiens; for MTAP intact/deleted ratio: SDMA in-cell western. The source says: Table 1 also indicates IC50 values in an MTAP-isogenic cell line pair for exemplary compounds in an SDMA in-cell western assay (columns 7-8). HAP1 MTAP-intact is a cell line in which endogenous levels of MTAP are expressed, and HAP1 MTAP-deleted is an MTAP-null cell line.

Experiment [5] concerns HAP1 MTAP-intact cell line. Put plainly: SDMA in-cell western assay, HAP1 MTAP-intact. It counts as cell-based. The following applies: Homo sapiens. In short, it runs like this:
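Readout: in-cell western detection of SDMA. Cells: HAP1 expressing endogenous MTAP and an MTAP-null HAP1 counterpart. Output: IC50.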

Experiment [6] has as its target T1, PRMT5. Put plainly: PRMT5 biochemical IC50 assay with MTA as cofactor.
Setting [7] is: PRMT5, SAM as cofactor, read-out: SAM IC50.
Where [8] appears, read: HAP1, SDMA in-cell western, HAP1 MTAP-deleted, read-out: HAP 1 MTAP deleted IC50.
Where [9] appears, read: IC50 ratio HAP1 MTAP-intact / HAP1 MTAP-deleted.
Where [10] appears, read: HAP1, SDMA in-cell western, HAP1 MTAP-intact, read-out: MTAP HAP1 intact IC50.
Where [11] appears, read: PRMT5, MTA as cofactor, read-out: MTA IC50.
[12] abbreviates: HAP1, SDMA in-cell western, HAP1 MTAP-deleted, read-out: HAP1 MTAP deleted IC50.
The mark [13] stands for this setting: IC50 ratio HAP1 MTAP-intact vs HAP1 MTAP-deleted.
[14] abbreviates: HAP1, viability, HAP1 MTAP-deleted cell line, read-out: HAP1 MTAP deleted viability.
Setting [15] is: read-out: No Cofactor/ rel IC50.
[16] abbreviates: HAP1, viability assay, MTAP-deleted cell line, read-out: HAP1 MTAP deleted viability.

Molecules are shown by their SMILES. Where two headings read alike, the source gives them in different places.

T1 sequence (O14744 whole entry): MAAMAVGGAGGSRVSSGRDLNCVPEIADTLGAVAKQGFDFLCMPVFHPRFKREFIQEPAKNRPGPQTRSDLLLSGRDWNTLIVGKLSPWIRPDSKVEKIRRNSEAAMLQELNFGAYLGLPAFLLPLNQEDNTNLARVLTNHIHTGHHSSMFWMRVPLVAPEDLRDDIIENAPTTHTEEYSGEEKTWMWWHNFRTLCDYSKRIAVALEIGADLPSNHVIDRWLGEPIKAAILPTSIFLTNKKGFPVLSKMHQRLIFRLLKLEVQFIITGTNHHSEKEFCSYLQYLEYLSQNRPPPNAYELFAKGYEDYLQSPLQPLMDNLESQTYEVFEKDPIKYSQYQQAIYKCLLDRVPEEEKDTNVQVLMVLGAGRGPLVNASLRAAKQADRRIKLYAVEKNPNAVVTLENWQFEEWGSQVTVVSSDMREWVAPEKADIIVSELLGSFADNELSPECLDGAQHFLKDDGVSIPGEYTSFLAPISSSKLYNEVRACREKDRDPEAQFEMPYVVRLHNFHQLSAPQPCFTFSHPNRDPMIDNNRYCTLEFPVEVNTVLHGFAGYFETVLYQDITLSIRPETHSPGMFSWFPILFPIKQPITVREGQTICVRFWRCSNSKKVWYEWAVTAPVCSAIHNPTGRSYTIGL
T1 sequence (Q9BQA1 whole entry partner): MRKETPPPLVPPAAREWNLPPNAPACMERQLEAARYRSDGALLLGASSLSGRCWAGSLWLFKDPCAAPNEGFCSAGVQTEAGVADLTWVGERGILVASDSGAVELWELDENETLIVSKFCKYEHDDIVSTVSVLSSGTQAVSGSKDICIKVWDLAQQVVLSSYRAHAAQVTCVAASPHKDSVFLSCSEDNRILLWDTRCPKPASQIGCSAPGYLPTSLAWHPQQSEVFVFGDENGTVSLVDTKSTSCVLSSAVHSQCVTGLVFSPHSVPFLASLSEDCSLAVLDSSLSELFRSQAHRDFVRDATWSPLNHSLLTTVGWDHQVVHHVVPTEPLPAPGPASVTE

In the case of `C[C@@H]1CC[C@@H](c2ccc3c(c2)OCCN3)N(C(=O)C(=O)Nc2cncc(C(N)=O)c2)C1` (single isomer, unassigned) [Compound 605], the IC50 in experiment [1] (setting [7]) was greater than 500 nM; in experiment [2] (HAP1, viability IC50, MTAP-deleted cell line, read-out: HAP1 MTAP deleted viability), greater than 10000 nM; in experiment [3] (read-out: No Cofactor/rel IC50) it was greater than 500 nM; in experiment [4] (setting [8]), greater than 1000 nM; in experiment [5] (setting [10]) it was greater than 1000 nM. Besides, the MTAP intact/deleted ratio result in experiment [4] (setting [9]) is reported as “B (an IC50 ratio greater than or equal to 3 fold but lower than 10 fold)”.

`COc1ncc(NC(=O)C(=O)N2C[C@H](C)C(F)(F)C[C@H]2c2ccc(F)cc2)cc1C(N)=O` (single isomer, unassigned) [Compound 1068]: the IC50 in experiment [1] (setting [7]) is 50 to 500 nM; in experiment [3] (read-out: No Cofactor/rel IC50) it was 50 to 500 nM; in experiment [6] (setting [11]) it was less than 50 nM; in experiment [4] (setting [12]), less than 100 nM; in experiment [5] (setting [10]), greater than 1000 nM. The MTAP intact/deleted ratio result in experiment [4] (setting [13]) is “A (an IC50 ratio greater than or equal to 10 fold)”.

For the compound `CNc1cccc([C@H]2CC[C@H](C)CN2C(=O)C(=O)Nc2cncc(C(N)=O)c2)c1` (single isomer, unassigned) [Compound 321], the IC50 was greater than 500 nM in experiment [1] (setting [7]); greater than 500 nM in experiment [3] (read-out: No Cofactor/rel IC50); greater than 500 nM in experiment [6] (setting [11]); greater than 1000 nM in experiment [4] (setting [12]); greater than 1000 nM in experiment [5] (setting [10]). For the same compound, the MTAP intact/deleted ratio entry in experiment [4] (setting [9]) is reported as “C (an IC50 ratio of less than 3 fold)”.

Consider `CCc1cc(NC(=O)C(=O)N2C[C@@H](C)CC[C@@H]2c2cccc([C@H]3CCCN(C)C3)c2)cnc1N` (single isomer, unassigned) [Compound 1285], for which the IC50 in experiment [1] (setting [7]) is 50 to 500 nM; in experiment [2] (setting [14]), less than 1000 nM; in experiment [3] (setting [15]), less than 50 nM; in experiment [4] (setting [8]), less than 100 nM; in experiment [5] (setting [10]), 100 to 1000 nM. In addition, the “MTAP intact/deleted ratio” value in experiment [4] (setting [9]) is given as “A (an IC50 ratio greater than or equal to 10 fold)”.

Regarding `Cc1cc(NC(=O)C(=O)N2C[C@H](C)CC[C@H]2c2ccc(CC(F)(F)F)cc2)cnc1N` (racemic) [Compound 1056], the IC50 in experiment [1] (setting [7]) was 50 to 500 nM; in experiment [3] (read-out: No Cofactor/rel IC50), 50 to 500 nM; in experiment [6] (setting [11]), less than 50 nM; in experiment [4] (setting [8]) it was 100 to 1000 nM; in experiment [5] (setting [10]), 100 to 1000 nM. Moreover, in experiment [4] (setting [9]), the MTAP intact/deleted ratio entry is recorded as “C (an IC50 ratio of less than 3 fold)”.

With `CCc1cc(NC(=O)C(=O)N2C[C@@H](C)CC[C@@H]2c2cccc(Oc3cc(C)nc(C)c3)c2)cnc1N` [Compound 1297, N-(6-amino-5-ethylpyridin-3-yl)-2-((2R,5S)-2-(3-((2,6-dimethylpyridin-4-yl)oxy)phenyl)-5-methylpiperidin-1-yl)-2-oxoacetamide], the IC50 in experiment [1] (setting [7]) is 50 to 500 nM; in experiment [2] (setting [14]), less than 1000 nM; in experiment [6] (setting [11]), less than 50 nM; in experiment [4] (setting [8]) it was less than 100 nM; in experiment [5] (setting [10]), 100 to 1000 nM.

Turning to `Cc1cncc(NC(=O)C(=O)N2C[C@@H](C)CC[C@@H]2c2cccc(F)c2)c1` (single isomer, unassigned) [Compound 77], the IC50 was greater than 10000 nM in experiment [2] (setting [16]); greater than 500 nM in experiment [3] (setting [15]); greater than 500 nM in experiment [6] (setting [11]); greater than 1000 nM in experiment [4] (setting [8]); greater than 1000 nM in experiment [5] (setting [10]). Moreover, the “MTAP intact/deleted ratio” value in experiment [4] (setting [9]) is “C (an IC50 ratio of less than 3 fold)”.

On to `CCc1cc(NC(=O)C(=O)N2C[C@@H](C)CC[C@@H]2c2cccc(CCCN(C)C)c2)cnc1N` [Compound 1393, N-(6-amino-5-ethylpyridin-3-yl)-2-((2R,5S)-2-(3-(3-(dimethylamino)propyl)phenyl)-5-methylpiperidin-1-yl)-2-oxoacetamide], for which the IC50 in experiment [1] (setting [7]) is 50 to 500 nM; in experiment [2] (setting [14]) it was less than 1000 nM; in experiment [6] (setting [11]), less than 50 nM; in experiment [4] (setting [8]), less than 100 nM; in experiment [5] (setting [10]), 100 to 1000 nM. The “MTAP intact/deleted ratio” value in experiment [4] (setting [9]) was “A (an IC50 ratio greater than or equal to 10 fold)”.

Take `CO[C@H]1C[C@H](c2ccc3scnc3c2)N(C(=O)C(=O)Nc2cncc(C(N)=O)c2)C[C@H]1C` (single isomer, unassigned) [Compound 1221]: the IC50 is greater than 500 nM in experiment [1] (setting [7]); 1000 to 10000 nM in experiment [2] (setting [16]); 50 to 500 nM in experiment [6] (setting [11]); 100 to 1000 nM in experiment [4] (setting [12]); greater than 1000 nM in experiment [5] (setting [10]). Moreover, the MTAP intact/deleted ratio result in experiment [4] (setting [13]) is recorded as “A (an IC50 ratio greater than or equal to 10 fold)”.

Take `CCc1cc(NC(=O)C(=O)N2C[C@@H](C)CC[C@@H]2c2cccc(Oc3cccnc3)c2)cnc1N` [Compound 1180]: the IC50 was 50 to 500 nM in experiment [1] (setting [7]); less than 1000 nM in experiment [2] (setting [16]); less than 50 nM in experiment [6] (setting [11]); less than 100 nM in experiment [4] (setting [12]); 100 to 1000 nM in experiment [5] (setting [10]). Moreover, the MTAP intact/deleted ratio result in experiment [4] (setting [13]) is “A (an IC50 ratio greater than or equal to 10 fold)”.

Regarding `Cc1cc(NC(=O)C(=O)N2C[C@H](C)CC[C@@H]2C2CCNC(=O)C2)cnc1N` (mixture of isomers) [Compound 159, N-(6-amino-5-methyl-3-pyridyl)-2-[(2S,5S)-5-methyl-2-(2-oxo-4-piperidyl)-1-piperidyl]-2-oxo-acetamide], the IC50 in experiment [1] (setting [7]) was 50 to 500 nM; in experiment [2] (setting [16]) it was greater than 10000 nM; in experiment [3] (setting [15]), 50 to 500 nM; in experiment [4] (setting [8]), greater than 1000 nM; in experiment [5] (setting [10]), greater than 1000 nM. Further, the “MTAP intact/deleted ratio” value in experiment [4] (setting [9]) was “B (an IC50 ratio greater than or equal to 3 fold but lower than 10 fold)”.

With `CCc1cc(NC(=O)C(=O)N2C[C@@H](C)CC[C@@H]2c2ccc3sc(C4(O)CCN(C)CC4)nc3c2)cnc1N` [Compound 1107], the IC50 is less than 50 nM in experiment [1] (SAM IC50, PRMT5, SAM as cofactor); less than 1000 nM in experiment [2] (HAP1, read-out: HAP1 MTAP deleted viability); less than 50 nM in experiment [6] (MTA IC50, PRMT5, MTA as cofactor); less than 100 nM in experiment [4] (HAP1, read-out: HAP1 MTAP deleted IC50); less than 100 nM in experiment [5] (HAP1, read-out: MTAP HAP1 intact IC50). Also, the MTAP intact/deleted ratio entry in experiment [4] (setting [13]) is given as “B (an IC50 ratio greater than or equal to 3 fold but lower than 10 fold)”.

In the case of `COc1ncc(NC(=O)C(=O)N2C[C@@H](C)CC[C@@H]2c2cccc(N3CCN(C)CC3)c2)cc1C(N)=O` [Compound 1277, 2-methoxy-5-(2-((2R,5S)-5-methyl-2-(3-(4-methylpiperazin-1-yl)phenyl)piperidin-1-yl)-2-oxoacetamido)nicotinamide], the IC50 in experiment [1] (setting [7]) is 50 to 500 nM; in experiment [2] (setting [14]), less than 1000 nM; in experiment [6] (setting [11]) it was less than 50 nM; in experiment [4] (setting [8]), less than 100 nM; in experiment [5] (setting [10]) it was 100 to 1000 nM. Besides, the “MTAP intact/deleted ratio” value in experiment [4] (setting [9]) is recorded as “A (an IC50 ratio greater than or equal to 10 fold)”.

`CCc1cc(NC(=O)C(=O)N2C[C@@H](C)CC[C@@H]2c2ccc(N3CCN(C)CC3)c(Cl)c2)cnc1N` (racemic) [Compound 1265, N-(6-Amino-5-ethyl-3-pyridyl)-2-oxo-2-[rac-(2R,5S)-2-[3-chloro-4-(4-methylpiperazin-1-yl)phenyl]-5-methyl-1-piperidyl]acetamide]: the IC50 in experiment [1] (setting [7]) was 50 to 500 nM; in experiment [2] (setting [14]) it was less than 1000 nM; in experiment [6] (setting [11]) it was 50 to 500 nM; in experiment [4] (setting [8]), less than 100 nM; in experiment [5] (setting [10]) it was 100 to 1000 nM. Moreover, the “MTAP intact/deleted ratio” value in experiment [4] (setting [9]) is reported as “A (an IC50 ratio greater than or equal to 10 fold)”.

In the case of `CCc1cc(NC(=O)C(=O)N2C[C@@H](C)CC[C@@H]2c2cccc(OCCCN(C)C)c2)cnc1N` [Compound 1384, N-(6-amino-5-ethylpyridin-3-yl)-2-((2R,5S)-2-(3-(3-(dimethylamino)propoxy)phenyl)-5-methylpiperidin-1-yl)-2-oxoacetamide], the IC50 in experiment [1] (setting [7]) was 50 to 500 nM; in experiment [2] (setting [14]) it was less than 1000 nM; in experiment [6] (setting [11]), less than 50 nM; in experiment [4] (setting [8]), less than 100 nM; in experiment [5] (setting [10]), less than 100 nM. The “MTAP intact/deleted ratio” value in experiment [4] (setting [9]) is “A (an IC50 ratio greater than or equal to 10 fold)”.

In the case of `CCc1cc(NC(=O)C(=O)N2C[C@@H](C)CC[C@@H]2c2cccc(C(F)(F)CCN(C)C)c2)cnc1N` [Compound 1381, N-(6-amino-5-ethylpyridin-3-yl)-2-((2R,5S)-2-(3-(3-(dimethylamino)-1,1-difluoropropyl)phenyl)-5-methylpiperidin-1-yl)-2-oxoacetamide], the IC50 in experiment [1] (setting [7]) is less than 50 nM; in experiment [2] (setting [14]) it was less than 1000 nM; in experiment [6] (setting [11]), less than 50 nM; in experiment [4] (setting [8]), less than 100 nM; in experiment [5] (setting [10]) it was 100 to 1000 nM. Also, in experiment [4] (setting [9]), the “MTAP intact/deleted ratio” value is on record as “A (an IC50 ratio greater than or equal to 10 fold)”.

(Values after patent publication US11999727B2 (Tango Therapeutics, Inc., priority 2020, dated 2024).)
